Entries after “also recorded” stand apart in the source; their conditions may differ.

Series [1] is described as follows: Relative humidity stability at ambient temperature, analyzed by XRPD. The class given is physicochemical. An excerpt: Upon completion of the duration allowed, the samples were immediately analyzed by XRPD.
Series [2] is described as follows: Slurrying in water, resulting solid form. Particulars: for result of slurrying in water: three days. It is filed as physicochemical.
A short description of series [3]: Intrinsic dissolution in 900 mL water at ambient conditions (attempted). The class given is physicochemical. To be noted: after 30 minutes. As for the experimental part:
Intrinsic dissolution in 900 mL water at ambient conditions was also attempted. […] Therefore, a concentration vs. time and intrinsic dissolution rate value were unobtainable at these conditions.

For a further series, the system named is cancer cell lines. Particulars: in vitro; cited from earlier work.
The conditions of series [4]: cited from earlier work.
The conditions of series [5]: cited from earlier work. The source holds these as a separate data set.
A further series has as its system hyperglycemic rats. To be noted: cited from earlier work.

Turning to “pterostilbene:glutaric acid [cocrystal 3]”, the Results entry in series [1] (75% RH, 4 weeks) is recorded as “no dissociation”; in series [1] (94% RH, 4 weeks), “no dissociation”; in series [1] (98% RH, 4 weeks), “no dissociation”. In addition, the “XRPD results when slurrying in water at ambient” value in series [2] (after 5 minutes) is listed as “crystalline pterostilbene”. Moreover, the “XRPD results, intrinsic dissolution” value in series [3] was “crystalline pterostilbene”.
On to “pterostilbene:carbamazepine [cocrystal 2]”, for which the “result of slurrying in water” value in series [2] was “stable”.
Take `Cn1c(=O)c2c(ncn2C)n(C)c1=O` [caffeine]: the Results result in series [1] (75% RH, 1 week) is listed as “caffeine anhydrous”; in series [1] (75% RH, 4 weeks), “does not display signs of conversion; also recorded: caffeine anhydrous”; in series [1] (75% RH, 1 day) it was “caffeine anhydrous”; in series [1] (75% RH, 3 days) it was “caffeine anhydrous”; in series [1] (94% RH, 1 week (7 days)), “caffeine hydrate”; in series [1] (94% RH, 4 weeks) it was “caffeine hydrate”. Moreover, the Results entry in series [1] (94% RH, 1 day) is recorded as “caffeine anhydrous”; in series [1] (94% RH, 3 days), “caffeine anhydrous/caffeine hydrate”; in series [1] (98% RH, 1 week), “caffeine hydrate”; in series [1] (98% RH, 4 weeks), “caffeine hydrate”; in series [1] (98% RH, 1 day), “caffeine hydrate”; in series [1] (98% RH, 3 days), “caffeine hydrate”. Moreover, the conversion to hydrate entry in series [1] (94% RH, between one and three days) is on record as “partial conversion”; in series [1] (98% RH, in less than one day) it was “converts to caffeine hydrate”.
As for `COc1cc(/C=C/c2ccc(O)cc2)cc(OC)c1.Cn1c(=O)c2c(ncn2C)n(C)c1=O` [cocrystal 1, pterostilbene:caffeine], the Results entry in series [1] (75% RH, 4 weeks) is listed as “no dissociation”; in series [1] (94% RH, 4 weeks), “no dissociation”; in series [1] (98% RH, 4 weeks), “no dissociation”.
Consider `COc1cc(/C=C/c2ccc(O)cc2)cc(OC)c1` [pterostilbene, trans-3,5-dimethoxy-4′-hydroxystilbene], for which the Results result in series [1] (75% RH, 4 weeks) was “pterostilbene (Form I)”; in series [1] (94% RH, 4 weeks) it was “pterostilbene (Form I)”; in series [1] (98% RH, 4 weeks), “pterostilbene (Form I)”. Moreover, the “cytotoxic activity against cancer cell lines” value with cancer cell lines is “cytotoxic activity”. Also, the bioavailability result in series [4] is reported as “poor bioavailability”. Also, in series [5], the solubility in water result is recorded as “poor solubility in water”.
Take `COc1cc(/C=C/c2ccc(O)cc2)cc(OC)c1.Cn1c(=O)c2c(ncn2C)n(C)c1=O` [cocrystal 1 (Form I), pterostilbene:caffeine]: the Results entry is on record as “cocrystal 1 (Form I), no caffeine hydrate” in series [1] (75% RH, 1 week); “cocrystal 1 (Form I), no caffeine hydrate” in series [1] (75% RH, 1 week, additional stress at 98% RH); “cocrystal 1 (Form I), no caffeine hydrate” in series [1] (75% RH, 4 weeks); “cocrystal 1 (Form I), no caffeine hydrate” in series [1] (75% RH, 1 day); “cocrystal 1 (Form I), no caffeine hydrate” in series [1] (75% RH, 1 day, additional stress at 98% RH); “cocrystal1 (Form I), no caffeine hydrate” in series [1] (75% RH, 3 days). Moreover, the Results result in series [1] (94% RH, 1 week (7 days)) is recorded as “cocrystal 1 (Form I), no caffeine hydrate”; in series [1] (94% RH, 4 weeks), “cocrystal 1 (Form I), no caffeine hydrate”; in series [1] (94% RH, 1 day) it was “cocrystal 1 (Form I), no caffeine hydrate”; in series [1] (94% RH, 3 days) it was “cocrystal 1 (Form I), no caffeine hydrate”; in series [1] (94% RH, 7 days, additional stress at 98% RH, 4 weeks), “cocrystal 1 (Form I), no caffeine hydrate”; in series [2] (slurry, 2 days), “cocrystal 1 (Form I), no caffeine hydrate”. In addition, the “result of slurrying in water” value in series [2] was “precipitation of pterostilbene”.
Take `CN(C)C(=N)N=C(N)N` [metformin]: the “decreased plasma glucose levels” value in the series with hyperglycemic rats is reported as 48%.

Values taken from patent US8513236B2 (Laurus Labs Private Limited, priority 2010, dated 2013).
